Data as given in patent US5300279A, “Organic amine phosphonic acid complexes for the treatment of calcific tumors” (The Dow Chemical Company, priority 1990, dated 1994).
Like-named read-outs stand apart in the source and are kept apart here.

From the text: Quantitative biodistributions were obtained by injecting 50-100 microliters of the composition into the tail vein of unanesthetized male Sprague Dawley rats. The rats were then placed in cages lined with absorbent paper in order to collect all urine excreted prior to sacrifice. After a given period of time, the rats were sacrificed by cervical dislocation and the various tissues dissected. The samples were then rinsed with saline, blotted dry on absorbent paper and weighed. The radioactivity in the samples was measured with a NaI scintillation counter.
Whenever in the following examples and tables data is presented on the administered dose of radioactivity, the numbers given represent the percentage of the administered dose which localized in the indicated tissue. The ratios of radioactivity observed in bone relative to blood and muscle were calculated based on the percent dose per gram in the bone and in the blood and muscle. Whenever the ratios of radioactivity found in bone to that found in nonosseous tissue is given, the calculation was made as indicated above on a percent dose per gram basis.
A series of rats was injected with compositions containing Sm-153 EDTMP (compositions prepared as in Example 2) and sacrified in groups of five at various intervals.

Compound: O=P([O-])(O)CN(CCN(CP(=O)([O-])O)CP(=O)(O)O)CP(=O)([O-])O.[153Sm+3] [Example 2]
- Average Percent of Injected Dose, Blood (1 Hour): .532% of Injected Dose
- Average Percent of Injected Dose, Kidneys (1 Hour): .466% of Injected Dose
- Average Percent of Injected Dose, Liver (1 Hour): .322% of Injected Dose
- Average Percent of Injected Dose, Skeleton (1 Hour): 58% of Injected Dose
- Average Percent of Injected Dose, Urine (1 Hour): 47% of Injected Dose
- Bone/Blood (1 Hour): 120
- Bone/Muscle (1 Hour): 300
- Average Percent of Injected Dose, Blood (2 Hours): .032% of Injected Dose
- Average Percent of Injected Dose, Kidneys (2 Hours): .254% of Injected Dose
- Average Percent of Injected Dose, Liver (2 Hours): .252% of Injected Dose
- Average Percent of Injected Dose, Skeleton (2 Hours): 58% of Injected Dose
- Average Percent of Injected Dose, Urine (2 Hours): 49% of Injected Dose
- Bone/Blood (2 Hours): 1800
- Bone/Muscle (2 Hours): 1500
- Average Percent of Injected Dose, Blood (5 Hours): .008% of Injected Dose
- Average Percent of Injected Dose, Kidneys (5 Hours): .364% of Injected Dose
- Average Percent of Injected Dose, Liver (5 Hours): .370% of Injected Dose
- Average Percent of Injected Dose, Skeleton (5 Hours): 59% of Injected Dose
- Average Percent of Injected Dose, Urine (5 Hours): 46% of Injected Dose
- Bone/Blood (5 Hours): 4200
- Bone/Muscle (5 Hours): 3600
- Average Percent of Injected Dose, Blood (15 Min.): 5.852% of Injected Dose
- Average Percent of Injected Dose, Kidneys (15 Min.): 1.745% of Injected Dose
- Average Percent of Injected Dose, Liver (15 Min.): .959% of Injected Dose
- Average Percent of Injected Dose, Skeleton (15 Min.): 48% of Injected Dose
- Average Percent of Injected Dose, Urine (15 Min.): 28% of Injected Dose
- Bone/Blood (15 Min.): 7
- Bone/Muscle (15 Min.): 30
- Average Percent of Injected Dose, Blood (24 Hours): .007% of Injected Dose
- Average Percent of Injected Dose, Kidneys (24 Hours): .250% of Injected Dose
- Average Percent of Injected Dose, Liver (24 Hours): .349% of Injected Dose
- Average Percent of Injected Dose, Skeleton (24 Hours): 52% of Injected Dose
- Average Percent of Injected Dose, Urine (24 Hours): 55% of Injected Dose
- Bone/Blood (24 Hours): 6700
- Bone/Muscle (24 Hours): 2400
- Average Percent of Injected Dose, Blood (30 Min.): 2.304% of Injected Dose
- Average Percent of Injected Dose, Kidneys (30 Min.): .805% of Injected Dose
- Average Percent of Injected Dose, Liver (30 Min.): .526% of Injected Dose
- Average Percent of Injected Dose, Skeleton (30 Min.): 53% of Injected Dose
- Average Percent of Injected Dose, Urine (30 Min.): 42% of Injected Dose
- Bone/Blood (30 Min.): 20
- Bone/Muscle (30 Min.): 70
- Average Percent of Injected Dose, Blood (48 Hours): .006% of Injected Dose
- Average Percent of Injected Dose, Kidneys (48 Hours): .286% of Injected Dose
- Average Percent of Injected Dose, Liver (48 Hours): .458% of Injected Dose
- Average Percent of Injected Dose, Skeleton (48 Hours): 60% of Injected Dose
- Average Percent of Injected Dose, Urine (48 Hours): 50% of Injected Dose
- Bone/Blood (48 Hours): 8200
- Bone/Muscle (48 Hours): 2800
- Average Percent of Injected Dose, Blood (72 Hours): .006% of Injected Dose
- Average Percent of Injected Dose, Kidneys (72 Hours): .216% of Injected Dose
- Average Percent of Injected Dose, Liver (72 Hours): .492% of Injected Dose
- Average Percent of Injected Dose, Skeleton (72 Hours): 57% of Injected Dose
- Average Percent of Injected Dose, Urine (72 Hours): 53% of Injected Dose
- Bone/Blood (72 Hours): 7800
- Bone/Muscle (72 Hours): 3400
- clearance of the radioactivity from the skeletal system (rats, up to 72 hours, words): no significant clearance of the radioactivity from the skeletal system
- blood clearance (rats, words): rapid blood clearance
- uptake of the radioactivity in bone (rats, words): rapid uptake of the radioactivity in bone
